This passage reports IC50 results from patent publication US20120328569A1, “INHIBITORS OF HEPATITIS C VIRUS NS5B POLYMERASE” (priority 2010, published 2012).

The assay has as its system HCV genotype 1b replicon. In words: HCV replicon assay, cell ELISA with antibody to replicon-encoded NS3/4A (genotype 1b replicon). Type of assay: cell-based, hepatitis C virus. As to conditions: Hepatitis C virus, 96 h, read-out: Replicon 1b IC50 (nM), HCV genotype 1b replicon cells, 96 hours incubation, NS3/4A ELISA readout. In short, it runs like this: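 Replicon-harbouring cells carrying neomycin phosphotransferase were incubated 96 h with a compound dilution series without G418. Replication was quantified indirectly by a cell ELISA detecting replicon-encoded NS3/4A. IC50 values were calculated relative to DMSO control with a four-parameter fit.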
Background: Replicon systems follow genome replication, usually without infectious particles.
`CNC(=O)c1c(-c2ccc(F)cc2)oc2cc(N(C)S(C)(=O)=O)c(-c3cccc(-c4cn5ccccc5n4)c3)cc12` [Example 141, 2-(4-fluorophenyl)-5-[3-(imidazo[1,2-a]pyridin-2-yl)phenyl]-N-methyl-6-[methyl (methylsulfonyl)amino]-1-benzofuran-3-carboxamide]: the IC50 came to 3 nM.

In the case of `CNC(=O)c1c(-c2ccc(F)cc2)oc2cc(N(C)S(C)(=O)=O)c(-c3cccc(-c4nc5cccnc5s4)c3)cc12` [Example 142, 2-(4-fluorophenyl)-N-methyl-6-[methyl (methylsulfonyl)amino]-5-[3-([1,3]thiazolo[5,4-b]pyridin-2-yl)phenyl]-1-benzofuran-3-carboxamide], the IC50 was found to be 1 nM.

Regarding `CNC(=O)c1c(-c2ccc(F)cc2)oc2cc(N(C)S(C)(=O)=O)c(-c3cccc(-c4nc5ccc(C)cc5s4)c3)cc12` [Example 143, 2-(4-fluorophenyl)-N-methyl-5-[3-(6-methyl-1,3-benzothiazol-2-yl)phenyl]-6-[methyl(methylsulfonyl)amino]-1-benzofuran-3-carboxamide], the IC50 worked out at 8 nM.

Turning to `CNC(=O)c1c(-c2ccc(F)cc2)oc2cc(N(C)S(C)(=O)=O)c(-c3ccc(OC)c(-c4nc5ccccc5s4)c3)cc12` [Example 144, 5-[3-(1,3-benzothiazol-2-yl)-4-methoxyphenyl]-2-(4-fluorophenyl)-N-methyl-6-[methyl (methylsulfonyl)amino]-1-benzofuran-3-carboxamide], the IC50 was 11 nM.

On to `CNC(=O)c1c(-c2ccc(F)cc2)oc2cc(N(C)S(C)(=O)=O)c(-c3ccc(F)c(-c4nc5ccccc5s4)c3)cc12` [Example 145, 5-[3-(1,3-benzothiazol-2-yl)-4-fluorophenyl]-2-(4-fluorophenyl)-N-methyl-6-[methyl (methylsulfonyl)amino]-1-benzofuran-3-carboxamide], for which the IC50 turned out to be 6 nM.

On to `CNC(=O)c1c(-c2ccc(F)cc2)oc2cc(N(C)S(C)(=O)=O)c(-c3cccc(-c4nc5c(C)cccc5s4)c3)cc12` [Example 146, 2-(4-fluorophenyl)-N-methyl-5-[3-(4-methyl-1,3-benzothiazol-2-yl)phenyl]-6-[methyl (methylsulfonyl)amino]-1-benzofuran-3-carboxamide], for which the IC50 amounted to 15 nM.

`CNC(=O)c1c(-c2ccc(F)cc2)oc2cc(N(C)S(C)(=O)=O)c(-c3cccc(-c4nc5ccc(F)cc5s4)c3)cc12` [Example 147, 5-[3-(6-fluoro-1,3-benzothiazol-2-yl)phenyl]-2-(4-fluorophenyl)-N-methyl-6-[methyl (methylsulfonyl)amino]-1-benzofuran-3-carboxamide]: the IC50 amounted to 7 nM.

As to `CNC(=O)c1c(-c2ccc(F)cc2)oc2cc(N(C)S(C)(=O)=O)c(-c3cccc(-c4nc5cc(Cl)ccc5s4)c3)cc12` [Example 148, 5-[3-(5-chloro-1,3-benzothiazol-2-yl)phenyl]-2-(4-fluorophenyl)-N-methyl-6-[methyl (methylsulfonyl)amino]-1-benzofuran-3-carboxamide], the IC50 is 9 nM.

In the case of `CNC(=O)c1c(-c2ccc(F)cc2)oc2cc(N(C)S(C)(=O)=O)c(-c3cccc(-c4nc5cc(C(F)(F)F)ccc5s4)c3)cc12` [Example 149, 2-(4-fluorophenyl)-N-methyl-6-[methyl (methylsulfonyl)amino]-5-{3-[5-(trifluoromethyl)-1,3-benzothiazol-2-yl]phenyl}-1-benzofuran-3-carboxamide], the IC50 was 11 nM.

`CNC(=O)c1c(-c2ccc(F)cc2)oc2cc(N(C)S(C)(=O)=O)c(-c3cccc(-c4nc5cc(F)ccc5[nH]4)c3)cc12` [Example 150, 5-[3-(5-fluoro-1H-benzimidazol-2-yl)phenyl]-2-(4-fluorophenyl)-N-methyl-6-[methyl(methylsulfonyl)amino]-1-benzofuran-3-carboxamide]: the IC50 stood at 1 nM.

As to `CNC(=O)c1c(-c2ccc(F)cc2)oc2cc(N(C)S(C)(=O)=O)c(-c3cccc(-c4nc5ccccc5[nH]4)c3)cc12` [Example 151, 5-[3-(1H-benzimidazol-2-yl)phenyl]-2-(4-fluorophenyl)-N-methyl-6-[methyl (methylsulfonyl)amino]-1-benzofuran-3-carboxamide], the IC50 was found to be 5 nM.

For the compound `CNC(=O)c1c(-c2ccc(F)cc2)oc2cc(N(C)S(C)(=O)=O)c(-c3cccc(-c4nc5ccc(C#N)cc5[nH]4)c3)cc12` [Example 152, 5-[3-(6-cyano-1H-benzimidazol-2-yl)phenyl]-2-(4-fluorophenyl)-N-methyl-6-[methyl (methylsulfonyl)amino]-1-benzofuran-3-carboxamide], the IC50 worked out at 4 nM.

With `CNC(=O)c1c(-c2ccc(F)cc2)oc2cc(N(C)S(C)(=O)=O)c(-c3cccc(-c4nc5ccc(Br)cc5[nH]4)c3)cc12` [Example 153, 5-[3-(6-bromo-1H-benzimidazol-2-yl)phenyl]-2-(4-fluorophenyl)-N-methyl-6-[methyl (methylsulfonyl)amino]-1-benzofuran-3-carboxamide], the IC50 is 4 nM.

As to `CNC(=O)c1c(-c2ccc(F)cc2)oc2cc(N(C)S(C)(=O)=O)c(-c3cccc(-c4nc5ccc(C)cc5[nH]4)c3)cc12` [Example 154, 2-(4-fluorophenyl)-N-methyl-5-[3-(6-methyl-1H-benzimidazol-2-yl)phenyl]-6-[methyl (methylsulfonyl)amino]-1-benzofuran-3-carboxamide], the IC50 stood at 4 nM.

Turning to `CNC(=O)c1c(-c2ccc(F)cc2)oc2cc(N(C)S(C)(=O)=O)c(-c3cccc(-c4nc5ncccc5o4)c3)cc12` [Example 155, 2-(4-fluorophenyl)-N-methyl-6-(N-methylmethylsulfonamido)-5-(3-(oxazolo[4,5-b]pyridin-2-yl)phenyl)benzofuran-3-carboxamide], the IC50 stood at 1.1 nM.

For the compound `CNC(=O)c1c(-c2ccc(F)cc2)oc2cc(N(C)S(C)(=O)=O)c(-c3cccc(-c4nc5ccccc5o4)c3)cc12` [Example 156], the IC50 came to 6.9 nM.

Consider `CNC(=O)c1c(-c2ccc(F)cc2)oc2cc(N(C)S(C)(=O)=O)c(-c3cccc(-c4nc5ccccc5o4)c3OC)cc12` [Example 157], for which the IC50 came out at 22.7 nM.

For `CNC(=O)c1c(-c2ccc(F)cc2)oc2cc(N(C)S(C)(=O)=O)c(-c3cccc(-c4nc5cc(F)ccc5o4)c3)cc12` [Example 158], the IC50 worked out at 4.8 nM.

Turning to `CNC(=O)c1c(-c2ccc(F)cc2)oc2cc(N(C)S(C)(=O)=O)c(-c3cccc(-c4nc5ccc(F)cc5o4)c3)cc12` [Example 159], the IC50 is 1.8 nM.

Take `CNC(=O)c1c(-c2ccc(F)cc2)oc2cc(N(C)S(C)(=O)=O)c(-c3cccc(-c4nc5cccc(F)c5o4)c3)cc12` [Example 160]: the IC50 was found to be 7 nM.

With `CNC(=O)c1c(-c2ccc(F)cc2)oc2cc(N(C)S(C)(=O)=O)c(-c3cc(F)cc(-c4nc5cccc(F)c5o4)c3)cc12` [Example 161], the IC50 was 3.7 nM.

As to `CNC(=O)c1c(-c2ccc(F)cc2)oc2cc(N(C)S(C)(=O)=O)c(-c3cc(F)cc(-c4nc5cc(Cl)ccc5o4)c3)cc12` [Example 162], the IC50 is 8.2 nM.

Turning to `CNC(=O)c1c(-c2ccc(F)cc2)oc2cc(N(C)S(C)(=O)=O)c(-c3cc(F)cc(-c4nc5ccc(Cl)cc5o4)c3)cc12` [Example 163], the IC50 was determined as 8.5 nM.

Consider `CNC(=O)c1c(-c2ccc(F)cc2)oc2cc(N(C)S(C)(=O)=O)c(-c3cc(F)cc(-c4nc5cccc(Cl)c5o4)c3)cc12` [Example 164], for which the IC50 is 16.5 nM.

As for `CNC(=O)c1c(-c2ccc(F)cc2)oc2cc(N(C)S(C)(=O)=O)c(-c3cc(F)cc(-c4nc5c(C)cccc5o4)c3)cc12` [Example 165], the IC50 is 4.7 nM.

For `CNC(=O)c1c(-c2ccc(F)cc2)oc2cc(N(C)S(C)(=O)=O)c(-c3cc(F)cc(-c4nc5ccc(C)cc5o4)c3)cc12` [Example 166], the IC50 was 4.4 nM.

Take `CNC(=O)c1c(-c2ccc(F)cc2)oc2cc(N(C)S(C)(=O)=O)c(-c3cc(F)cc(-c4nc5cccc(C)c5o4)c3)cc12` [Example 167]: the IC50 was 10.4 nM.

In the case of `CNC(=O)c1c(-c2ccc(F)cc2)oc2cc(N(C)S(C)(=O)=O)c(-c3ccc(F)c(-c4nc5ccccc5o4)c3)cc12` [Example 168], the IC50 worked out at 3.9 nM.

Consider `CNC(=O)c1c(-c2ccc(F)cc2)oc2cc(N(C)S(C)(=O)=O)c(-c3cc(-c4nc5ccccc5o4)ccc3F)cc12` [Example 169], for which the IC50 is 6.4 nM.

As for `CNC(=O)c1c(-c2ccc(F)cc2)oc2cc(N(C)S(C)(=O)=O)c(-c3cccc(-c4nc5cc(Cl)ccc5o4)c3)cc12` [Example 170], the IC50 was 5.2 nM.

With `CNC(=O)c1c(-c2ccc(F)cc2)oc2cc(N(C)S(C)(=O)=O)c(-c3cccc(-c4nc5ccc(Cl)cc5o4)c3)cc12` [Example 171], the IC50 was 6.8 nM.

For the compound `CNC(=O)c1c(-c2ccc(F)cc2)oc2cc(N(C)S(C)(=O)=O)c(-c3cccc(-c4nc5cccc(Cl)c5o4)c3)cc12` [Example 172], the IC50 turned out to be 27 nM.

Take `CNC(=O)c1c(-c2ccc(F)cc2)oc2cc(N(C)S(C)(=O)=O)c(-c3cccc(-c4nc5c(C)cccc5o4)c3)cc12` [Example 173]: the IC50 turned out to be 5.6 nM.

For the compound `CNC(=O)c1c(-c2ccc(F)cc2)oc2cc(N(C)S(C)(=O)=O)c(-c3cccc(-c4nc5ccc(C)cc5o4)c3)cc12` [Example 174], the IC50 worked out at 10.4 nM.

For the compound `CNC(=O)c1c(-c2ccc(F)cc2)oc2cc(N(C)S(C)(=O)=O)c(-c3cccc(-c4nc5cccc(C)c5o4)c3)cc12` [Example 175], the IC50 was found to be 13.8 nM.

Take `CNC(=O)c1c(-c2ccc(F)cc2)oc2cc(N(C)S(C)(=O)=O)c(-c3cc(OC)cc(-c4nc5ccccc5o4)c3)cc12` [Example 176]: the IC50 is 3.9 nM.

For `CNC(=O)c1c(-c2ccc(F)cc2)oc2cc(N(C)S(C)(=O)=O)c(-c3ccc(Cl)c(-c4nc5ccccc5o4)c3)cc12` [Example 177], the IC50 came out at 7.4 nM.

As for `CNC(=O)c1c(-c2ccc(F)cc2)oc2cc(N(C)S(C)(=O)=O)c(-c3cc(Cl)cc(-c4nc5ccccc5o4)c3)cc12` [Example 178], the IC50 stood at 7 nM.
